From patent publication US20230278972A1, “SUBSTITUTED HALOALKYL SULFONANILIDE HERBICIDES” (FMC Corporation, priority 2020, published 2023)

Legend:
Format in all cases: in vivo
[1] = tested on: blackgrass (Alopecurus myosuroides); experiment: Test A1 preemergence, blackgrass
Text: (§1) Seeds of plant species selected from, blackgrass (Alopecurus myosuroides), corn (Zea mays), Foxtail, Giant (giant foxtail, Setaria faberi), goosegrass (Eleusine indica), kochia (Bassia scoparia), Oat, Wild (wild oat, Avena fatua), Pigweed, Palmer (palmer amaranth, palmer pigweed, Amaranthus palmeri), ragweed (common ragweed, Ambrosia artemisiifolia), Ryegrass, Italian (Italian ryegrass, Lolium multiflorum), soybean (Glycine max), and wheat (Triticum aestivum) were planted into a blend of loam soil and sand and treated preemergence with a directed soil spray using test chemicals formulated in a non-phytotoxic solvent mixture which included a surfactant. At the same time, plants selected from these crop and weed species and also galium (catchweed bedstraw, Galium aparine) and horseweed (Erigeron canadensis) were planted in pots containing the same blend of loam soil and sand and treated with postemergence applications of test chemicals formulated in the same manner. Plants ranged in height from 2 to 10 cm and were in the one- to two-leaf stage for the postemergence treatment. […] A dash (-) response means no test result.

[2] = tested on: corn (Zea mays); experiment: Test A1 preemergence, corn
Text: as §1

[3] = tested on: Foxtail, Giant (giant foxtail, Setaria faberi); experiment: Test A1 preemergence, Foxtail, Giant
Text: as §1

[4] = tested on: goosegrass (Eleusine indica); experiment: Test A1 preemergence, goosegrass
Text: as §1

[5] = tested on: kochia (Bassia scoparia); experiment: Test A1 preemergence, kochia
Text: as §1

[6] = tested on: Oat, Wild (wild oat, Avena fatua); experiment: Test A1 preemergence, Oat, Wild
Text: as §1

[7] = tested on: Pigweed, Palmer (palmer amaranth, palmer pigweed, Amaranthus palmeri); experiment: Test A1 preemergence, Pigweed, Palmer
Text: as §1

[8] = tested on: ragweed (common ragweed, Ambrosia artemisiifolia); experiment: Test A1 preemergence, ragweed
Text: as §1

[9] = tested on: Ryegrass, Italian (Italian ryegrass, Lolium multiflorum); experiment: Test A1 preemergence, Ryegrass, Italian
Text: as §1

[10] = tested on: soybean (Glycine max); experiment: Test A1 preemergence, soybean
Text: as §1

[11] = tested on: wheat (Triticum aestivum); experiment: Test A1 preemergence, wheat
Text: as §1

[12] = tested on: blackgrass (Alopecurus myosuroides); experiment: Test A1 postemergence, blackgrass; details: Postemergence, 0 to 100 scale (0 no effect, 100 complete control)
Text: as §1

[13] = tested on: corn (Zea mays); experiment: Test A1 postemergence, corn; details: Postemergence
Text: as §1

[14] = tested on: Foxtail, Giant (giant foxtail, Setaria faberi); experiment: Test A1 postemergence, Foxtail, Giant; details: Postemergence
Text: as §1

[15] = tested on: goosegrass (Eleusine indica); experiment: Test A1 postemergence, goosegrass; details: Postemergence
Text: as §1

[16] = tested on: kochia (Bassia scoparia); experiment: Test A1 postemergence, kochia; details: Postemergence
Text: as §1

[17] = tested on: Oat, Wild (wild oat, Avena fatua); experiment: Test A1 postemergence, Oat, Wild; details: Postemergence
Text: as §1

[18] = tested on: Pigweed, Palmer (palmer amaranth, palmer pigweed, Amaranthus palmeri); experiment: Test A1 postemergence, Pigweed, Palmer; details: Postemergence
Text: as §1

[19] = tested on: ragweed (common ragweed, Ambrosia artemisiifolia); experiment: Test A1 postemergence, ragweed; details: Postemergence
Text: as §1

[20] = tested on: Ryegrass, Italian (Italian ryegrass, Lolium multiflorum); experiment: Test A1 postemergence, Ryegrass, Italian; details: Postemergence
Text: as §1

[21] = tested on: soybean (Glycine max); experiment: Test A1 postemergence, soybean; details: Postemergence
Text: as §1

[22] = tested on: wheat (Triticum aestivum); experiment: Test A1 postemergence, wheat; details: Postemergence
Text: as §1

[23] = tested on: galium (catchweed bedstraw, Galium aparine); experiment: Test A1 postemergence, galium; details: Postemergence
Text: as §1

[24] = tested on: barnyardgrass (Echinochloa crus-galli); experiment: Test B1 flooded paddy test, barnyardgrass; details: 250 g ai/ha, Flood, applied to paddy water, 2-leaf stage, visually evaluated after 10 to 14 days
Text: (§2) A dash (-) response means no test result.

[25] = tested on: ducksalad (Heteranthera limosa); experiment: Test B1 flooded paddy test, ducksalad; details: 250 g ai/ha, Flood, applied to paddy water, 2-leaf stage, visually evaluated after 10 to 14 days
Text: as §2

[26] = tested on: rice (Oryza sativa); experiment: Test B1 flooded paddy test, rice; details: 250 g ai/ha, Flood, applied to paddy water, 2-leaf stage, visually evaluated after 10 to 14 days
Text: as §2

[27] = 31 g ai/ha, 0 to 100 scale (0 no effect, 100 complete control)
[28] = 125 g ai/ha, 0 to 100 scale, 0 no effect, 100 complete control
[29] = 31 g ai/ha, 0 to 100 scale (0 no effect, 100 complete control), 10 days

CCc1cc(C)c(C2=NOC3(CCCC3)C2)cc1NS(=O)(=O)C(F)(F)F [Compound 311]
Plant response rating, Blackgrass [1, 27]: 20
Plant response rating, Blackgrass [1, 28]: 40
Plant response rating, Corn [2, 27]: 0
Plant response rating, Corn [2, 28]: 0
Plant response rating, Foxtail, Giant [3, 27]: 0
Plant response rating, Foxtail, Giant [3, 28]: 10
Plant response rating, Goosegrass [4, 27]: 10
Plant response rating, Goosegrass [4, 28]: 60
Plant response rating, Kochia [5, 27]: 0
Plant response rating, Kochia [5, 28]: 0
Plant response rating, Oat, Wild [6, 27]: 0
Plant response rating, Oat, Wild [6, 28]: 0
Plant response rating, Pigweed, Palmer [7, 27]: 30
Plant response rating, Pigweed, Palmer [7, 28]: 30
Plant response rating, Ragweed [8, 27]: 0
Plant response rating, Ragweed [8, 28]: 0
Plant response rating, Ryegrass, Italian [9, 27]: 0
Plant response rating, Ryegrass, Italian [9, 28]: 60
Plant response rating, Soybean [10, 27]: 0
Plant response rating, Soybean [10, 28]: 0
Plant response rating, Wheat [11, 27]: 0
Plant response rating, Wheat [11, 28]: 0
Plant response rating, Blackgrass ([12]; 31 g ai/ha, 10 days): 0
Plant response rating, Blackgrass ([12]; 125 g ai/ha): 0
Plant response rating, Corn [13, 29]: 0
Plant response rating, Corn ([13]; 125 g ai/ha, 0 to 100 scale): 0
Plant response rating, Foxtail, Giant [14, 29]: 0
Plant response rating, Foxtail, Giant ([14]; 125 g ai/ha, 0 to 100 scale): 20
Plant response rating, Goosegrass [15, 29]: 0
Plant response rating, Goosegrass ([15]; 125 g ai/ha, 0 to 100 scale): 0
Plant response rating, Kochia [16, 29]: 0
Plant response rating, Kochia ([16]; 125 g ai/ha, 0 to 100 scale): 0
Plant response rating, Oat, Wild [17, 29]: 0
Plant response rating, Oat, Wild ([17]; 125 g ai/ha, 0 to 100 scale): 0
Plant response rating, Pigweed, Palmer [18, 29]: 0
Plant response rating, Pigweed, Palmer ([18]; 125 g ai/ha, 0 to 100 scale): 0
Plant response rating, Ragweed [19, 29]: 0
Plant response rating, Ragweed ([19]; 125 g ai/ha, 0 to 100 scale): 0
Plant response rating, Ryegrass, Italian [20, 29]: 0
Plant response rating, Ryegrass, Italian ([20]; 125 g ai/ha, 0 to 100 scale): 0
Plant response rating, Soybean [21, 29]: 10
Plant response rating, Soybean ([21]; 125 g ai/ha, 0 to 100 scale): 40
Plant response rating, Wheat [22, 29]: 0
Plant response rating, Wheat ([22]; 125 g ai/ha, 0 to 100 scale): 0
Plant response rating, Galium [23, 29]: 0
Plant response rating, Galium ([23]; 125 g ai/ha, 0 to 100 scale): 0
Plant response rating, Barnyardgrass (0 to 100 scale, 0 is no effect, 100 is complete control) [24]: 0
Plant response rating, Ducksalad (0 to 100 scale, 0 is no effect, 100 is complete control) [25]: 0
Plant response rating, Rice (0 to 100 scale, 0 is no effect, 100 is complete control) [26]: 0

Cc1c(NS(=O)(=O)C(F)(F)F)cc(C(=O)N2CC(C)OC(C)C2)c(C)c1C (centres unmarked) [Compound 327]
Plant response rating, Blackgrass [1, 27]: 0
Plant response rating, Blackgrass [1, 28]: 30
Plant response rating, Corn [2, 27]: 0
Plant response rating, Corn [2, 28]: 60
Plant response rating, Foxtail, Giant [3, 27]: 100
Plant response rating, Foxtail, Giant [3, 28]: 100
Plant response rating, Goosegrass [4, 27]: 50
Plant response rating, Goosegrass [4, 28]: 90
Plant response rating, Kochia [5, 27]: 0
Plant response rating, Kochia [5, 28]: 70
Plant response rating, Oat, Wild [6, 27]: 0
Plant response rating, Oat, Wild [6, 28]: 70
Plant response rating, Pigweed, Palmer [7, 27]: 90
Plant response rating, Pigweed, Palmer [7, 28]: 90
Plant response rating, Ragweed [8, 27]: 90
Plant response rating, Ragweed [8, 28]: 90
Plant response rating, Ryegrass, Italian [9, 27]: 40
Plant response rating, Ryegrass, Italian [9, 28]: 50
Plant response rating, Soybean [10, 27]: 30
Plant response rating, Soybean [10, 28]: 90
Plant response rating, Wheat [11, 27]: 0
Plant response rating, Wheat [11, 28]: 30
Plant response rating, Blackgrass ([12]; 31 g ai/ha, 10 days): 0
Plant response rating, Blackgrass ([12]; 125 g ai/ha): 0
Plant response rating, Corn [13, 29]: 10
Plant response rating, Corn ([13]; 125 g ai/ha, 0 to 100 scale): 40
Plant response rating, Foxtail, Giant [14, 29]: 30
Plant response rating, Foxtail, Giant ([14]; 125 g ai/ha, 0 to 100 scale): 90
Plant response rating, Goosegrass [15, 29]: 20
Plant response rating, Goosegrass ([15]; 125 g ai/ha, 0 to 100 scale): 70
Plant response rating, Kochia [16, 29]: 10
Plant response rating, Kochia ([16]; 125 g ai/ha, 0 to 100 scale): 30
Plant response rating, Oat, Wild [17, 29]: 0
Plant response rating, Oat, Wild ([17]; 125 g ai/ha, 0 to 100 scale): 0
Plant response rating, Pigweed, Palmer [18, 29]: 30
Plant response rating, Pigweed, Palmer ([18]; 125 g ai/ha, 0 to 100 scale): 50
Plant response rating, Ragweed [19, 29]: 70
Plant response rating, Ragweed ([19]; 125 g ai/ha, 0 to 100 scale): 90
Plant response rating, Ryegrass, Italian [20, 29]: 0
Plant response rating, Ryegrass, Italian ([20]; 125 g ai/ha, 0 to 100 scale): 30
Plant response rating, Soybean [21, 29]: 60
Plant response rating, Soybean ([21]; 125 g ai/ha, 0 to 100 scale): 60
Plant response rating, Wheat [22, 29]: 0
Plant response rating, Wheat ([22]; 125 g ai/ha, 0 to 100 scale): 50
Plant response rating, Galium [23, 29]: 100
Plant response rating, Galium ([23]; 125 g ai/ha, 0 to 100 scale): 100
Plant response rating, Barnyardgrass (0 to 100 scale, 0 is no effect, 100 is complete control) [24]: 30
Plant response rating, Ducksalad (0 to 100 scale, 0 is no effect, 100 is complete control) [25]: 85
Plant response rating, Rice (0 to 100 scale, 0 is no effect, 100 is complete control) [26]: 0
